Data: patent publication US9457095B2, “Pharmaceutical compositions providing enhanced drug concentrations” (Bend Research, Inc., priority 1999, dated 2016)
Converted amounts (≈) assume the structure as drawn. Where a name gives a salt, the structure may show the parent alone.

How the values were obtained:
Format in all cases: physicochemical
[1] = microcentrifuge dissolution, ziprasidone mesylate (Drug 3) with polymer; settings: for [Drug 3]: PBS, 37° C.
Procedure: Ziprasidone mesylate (Drug 3) is the soluble salt form of the antipsychotic drug ziprasidone. For these tests, 0.5 mg drug was added to each of 8 microcentrifuge tubes. For Control 5, no concentration-enhancing polymer was added to Tubes 1 and 2. For Example 12, 1.0 mg of CAT was added to Tubes 3 and 4. For Example 13, 1.0 mg of CAP (NF grade from Eastman Fine Chemical of Kingsport, Tenn.) was added to Tubes 5 and 6. For Example 14, 1.0 mg HPMCP (NF grade from Eastman Chemical Company) was added to Tubes 7 and 8.
Dissolution performance was measured at 37° C. using the microcentrifuge method described in Example 1. For each test, 0.616 mg of Drug 3 was added to the microcentrifuge tube. At time 0, 1.8 mL PBS was added to each of the tubes. Drug concentration was measured using HPLC, with a mobile phase of 60 vol. % 0.02 M KH2PO4, pH 3.0 in ACN, and diode array detection at 254 nm.

[2] = solubility of sertraline forms; settings: for solubility: sertraline forms, pH 3, expressed as the free base
[3] = microcentrifuge dissolution, amorphous Drug 1 with varying ratios of HPMCAS-MF; settings: 15 mg amorphous Drug 1 in 1.5 mL PBS, 37° C.
Procedure: Amorphous Drug 1 (15 mg) was added to microcentrifuge tubes containing 1.5 mL of PBS solution and varying concentrations of HPMCAS-MF. Dissolution performance was measured at 37° C. using the microcentrifuge method described in Example 1. Drug concentration was measured at 1.5 hours and at 20 hours for each polymer concentration.

[4] = Cmax of Drug 1 forms in MFD solution; settings: pH 6.5 MFD solution
[5] = solubility of Drug 6 salt forms; settings: Drug 6 salts
[6] = solubility of Drug 4 polymorphs in water; settings: Drug 4 mesylate polymorph
[7] = microcentrifuge dissolution, sertraline lactate (Drug 2) with polymer
Procedure: For these tests, 1.8 mg sertraline lactate was added to 0.9 mL HPLC water in each of six microcentrifuge tubes. For Control 4, 0.9 mL 2×PBS (PBS solution with 2 times the standard buffer salt concentration), adjusted to pH 8.0, was added to Tubes 1 and 2. For Example 10, 0.9 mL 2×PBS (pH 8.0) containing 3.6 mg of HPMCAS-MF was added to Tubes 3 and 4. For Example 11, 0.9 mL 2×PBS (pH 8.0) containing 3.6 mg of CAT was added to Tubes 5 and 6.
Dissolution performance was measured at 37° C. using the microcentrifuge method described in Example 1. Samples were taken after 4, 10, 20, 40, 90, and 180 minutes as described in Example 1. Samples were diluted in 35% H2O/65% ACN (vol./vol.), and analyzed by HPLC. The mobile phase was 35 vol. % 0.025 M triethylamine with 0.05M acetic acid in HPLC water in ACN. The analytical column used was a Phenomenex ODS 20, and the drug concentration was determined using diode array detection at 230 nm.

CS(=O)(=O)O.O=C1Cc2cc(CCN3CCN(c4nsc5ccccc45)CC3)c(Cl)cc2N1 [Control 5]
AUC180 ([1]; Drug 3 dissolution in PBS): 1000 µg·min/mL | Cmax ([1]; Drug 3 dissolution in PBS): 11 µg/mL | [Drug 3] ([1]; 10 mins): 3 µg/mL | [Drug 3] ([1]; 20 mins): 11 µg/mL | [Drug 3] ([1]; 40 mins): 6 µg/mL | [Drug 3] ([1]; 90 mins): 7 µg/mL | [Drug 3] ([1]; 180 mins): 1 µg/mL

CN[C@H]1CC[C@@H](c2ccc(Cl)c(Cl)c2)c2ccccc21 [Drug 5, sertraline HCl]
solubility ([2]; aqueous solution, aqueous buffer, read-out: solubility): 3000 µg/mL | solubility thermodynamic ([2]; distilled water, aqueous buffer, thermodynamic from solid, sertraline hydrochloride with or without citric acid, pH 3, read-out: equilibrium solubility): 3000 µg/mL

O=C(N[C@@H](Cc1ccccc1)[C@@H](O)C(=O)N1C[C@@H](O)[C@@H](O)C1)c1cc2cc(Cl)ccc2[nH]1 [amorphous Drug 1, 5-chloro-1H-indole-2-carboxylic acid [(1 S)-benzyl-3-((3R, 4S)-dihydroxypyrroldin-1-yl-)-(2R)-hydroxy-3-oxypropyl] amide]
[Drug] 1.5 hr. [3]: 224 µg/mL | Cmax ([4]; listed as amorphous form): 270 µg/mL

4-[3-[4-(2-methylimidazol-1-yl) phenylthio] phenyl]-3,4,5,6-tetrahydro-2H-pyran-4-carboxamide hemifumarate [Drug 6]
solubility ([5]; pH 4, listed as Drug 6 mesylate salt): 3.7 mgA/mL | solubility ([5]; pH 7, listed as Drug 6 mesylate salt): 0.0042 mgA/mL

C#Cc1cccc(Nc2ncnc3cc(OCCOC)c(OCCOC)cc23)c1 [“A” form, [6,7-Bis(2-methoxy-ethoxy)-quinazolin-4-yl]-(3-ethynyl-phenyl)amine]
solubility ([6]; read-out: solubility in water): 102 µg/mL (≈ 259 µM)

CN[C@H]1CC[C@@H](c2ccc(Cl)c(Cl)c2)c2ccccc21 [Control 4]
[Drug 2] ([7]; 10 mins): 89 µg/mL | [Drug 2] ([7]; 20 mins): 72 µg/mL | [Drug 2] ([7]; 40 mins): 67 µg/mL | [Drug 2] ([7]; 90 mins): 63 µg/mL | [Drug 2] ([7]; 180 mins): 60 µg/mL | AUC180 ([7]; Drug 2 dissolution): 11,700 min * μg/mL | Cmax ([7]; Drug 2 dissolution): 101 µg/mL | [Drug 2] ([7]; PBS (2x PBS pH 8.0 added), 37° C., 4 mins): 101 µg/mL

C#Cc1cccc(Nc2ncnc3cc(OCCOC)c(OCCOC)cc23)c1 [“C” form, [6,7-Bis(2-methoxy-ethoxy)-quinazolin-4-yl]-(3-ethynyl-phenyl)amine]
solubility ([6]; read-out: solubility): 28 µg/mL (≈ 71.2 µM)

4-[3-[4-(2-methylimidazol-1-yl) phenylthio] phenyl]-3,4,5,6-tetrahydro-2H-pyran-4-carboxamide hemifumarate [Drug 6 hydrochloride salt]
solubility ([5]; pH 4): 0.37 mgA/mL | solubility ([5]; pH 7): 0.0009 mgA/mL

O=C(N[C@@H](Cc1ccccc1)[C@@H](O)C(=O)N1C[C@@H](O)[C@@H](O)C1)c1cc2cc(Cl)ccc2[nH]1 [crystalline Drug 1, 5-chloro-1H-indole-2-carboxylic acid [(1 S)-benzyl-3-((3R, 4S)-dihydroxypyrroldin-1-yl-)-(2R)-hydroxy-3-oxypropyl] amide]
Cmax ([4]; listed as crystalline form): 160 µg/mL

CN[C@H]1CC[C@@H](c2ccc(Cl)c(Cl)c2)c2ccccc21 [Drug 2, sertraline lactate]
solubility [2]: 256000 µg/mL
